According to the CheMixHub ionic liquid set:
Several values for one entry are separate records, joined by “and”; a condition that tells them apart may be missing. Equal values may be shown once.

Experiment: xn = mol fraction of the nth substance listed
Conditions: 298.15 K, 101 kPa, frequency 0.001 MHz

CCCCCCCCCCCCCCCC[N+](C)(C)C.[Br-] + CCCCCCCCCCCCOS(=O)(=O)[O-].[Na+] + O
Conditions	electrical conductivity
x2 = 0, x1 = 3e-08	0.000332 S/m
x2 = 0, x1 = 1.09e-06	0.001 S/m
x2 = 0, x1 = 2.34e-06	0.00165 S/m
x2 = 0, x1 = 3.39e-06	0.00255 S/m
x2 = 0, x1 = 4.43e-06	0.00305 S/m
x2 = 0, x1 = 5.57e-06	0.00366 S/m
x2 = 0, x1 = 6.72e-06	0.00441 S/m
x2 = 0, x1 = 7.97e-06	0.00511 S/m
x2 = 0, x1 = 8.91e-06	0.00577 S/m
x2 = 0, x1 = 1.12e-05	0.00697 S/m
x2 = 0, x1 = 1.213e-05	0.00757 S/m
x2 = 0, x1 = 1.307e-05	0.00823 S/m
x2 = 0, x1 = 1.411e-05	0.00873 S/m
x2 = 0, x1 = 1.526e-05	0.00943 S/m
x2 = 0, x1 = 1.63e-05	0.00978 S/m
x2 = 0, x1 = 1.734e-05	0.0102 S/m
x2 = 0, x1 = 1.922e-05	0.0105 S/m
x2 = 0, x1 = 1.995e-05	0.0108 S/m
x2 = 0, x1 = 2.172e-05	0.0111 S/m
x2 = 0, x1 = 2.276e-05	0.0113 S/m
x2 = 0, x1 = 2.443e-05	0.0115 S/m
x2 = 0, x1 = 2.599e-05	0.0117 S/m
x2 = 0, x1 = 2.734e-05	0.012 S/m
x2 = 0, x1 = 2.859e-05	0.0122 S/m
x2 = 1e-08, x1 = 1e-08	0.000339 S/m and 0.000404 S/m
x2 = 1e-08, x1 = 3e-08	0.000436 S/m
x2 = 1e-08, x1 = 4e-08	0.000343 S/m
x2 = 1e-08, x1 = 1.2e-07	0.000394 S/m
x2 = 2e-08, x1 = 2e-08	0.000534 S/m
x2 = 2e-08, x1 = 3e-08	0.000686 S/m and 0.000765 S/m
x2 = 2e-08, x1 = 4e-08	0.000522 S/m and 0.000583 S/m and 0.000801 S/m
x2 = 2e-08, x1 = 5e-08	0.000647 S/m and 0.000697 S/m
x2 = 2e-08, x1 = 7e-08	0.000383 S/m
x2 = 2e-08, x1 = 8e-08	0.000422 S/m
x2 = 2e-08, x1 = 1.5e-07	0.000412 S/m
x2 = 2e-08, x1 = 1.9e-07	0.000438 S/m
x2 = 3e-08, x1 = 1e-08	0.000594 S/m
x2 = 3e-08, x1 = 4e-08	0.000836 S/m
x2 = 3e-08, x1 = 5e-08	0.000883 S/m
x2 = 3e-08, x1 = 6e-08	0.000733 S/m
x2 = 3e-08, x1 = 7e-08	0.000772 S/m
x2 = 3e-08, x1 = 1.1e-07	0.000459 S/m
x2 = 3e-08, x1 = 2.3e-07	0.000467 S/m
x2 = 3e-08, x1 = 3e-07	0.000493 S/m
x2 = 4e-08, x1 = 2e-08	0.000416 S/m and 0.00028 S/m
x2 = 4e-08, x1 = 6e-08	0.000919 S/m
x2 = 4e-08, x1 = 8e-08	0.000812 S/m
x2 = 4e-08, x1 = 1e-07	0.000848 S/m
x2 = 4e-08, x1 = 1.7e-07	0.000541 S/m
x2 = 4e-08, x1 = 3.6e-07	0.000522 S/m
x2 = 5e-08, x1 = 1e-08	0.000679 S/m
x2 = 5e-08, x1 = 7e-08	0.000941 S/m
x2 = 5e-08, x1 = 1.2e-07	0.000887 S/m
x2 = 5e-08, x1 = 4.3e-07	0.000555 S/m
x2 = 6e-08, x1 = 2e-08	0.000797 S/m
x2 = 6e-08, x1 = 6e-08	0.000747 S/m
x2 = 6e-08, x1 = 9e-08	0.000991 S/m
x2 = 6e-08, x1 = 2.4e-07	0.000642 S/m
x2 = 7e-08, x1 = 1.1e-07	0.00101 S/m
x2 = 7e-08, x1 = 1.5e-07	0.000924 S/m
x2 = 7e-08, x1 = 2.9e-07	0.000707 S/m
x2 = 8e-08, x1 = 1e-08	0.000628 S/m
x2 = 8e-08, x1 = 2e-08	0.000891 S/m
x2 = 8e-08, x1 = 3e-08	0.00034 S/m
x2 = 8e-08, x1 = 5e-08	0.00106 S/m
x2 = 8e-08, x1 = 1.9e-07	0.00096 S/m
x2 = 8e-08, x1 = 3.2e-07	0.000765 S/m
x2 = 9e-08, x1 = 6e-08	0.00125 S/m
x2 = 9e-08, x1 = 1.3e-07	0.00105 S/m
x2 = 9e-08, x1 = 3.7e-07	0.000826 S/m
x2 = 1e-07, x1 = 6e-08	0.00139 S/m
x2 = 1e-07, x1 = 1.5e-07	0.00109 S/m
x2 = 1.1e-07, x1 = 7e-08	0.00148 S/m
x2 = 1.1e-07, x1 = 1.1e-07	0.001 S/m
x2 = 1.2e-07, x1 = 3e-08	0.00103 S/m
x2 = 1.2e-07, x1 = 5e-08	0.000383 S/m
x2 = 1.2e-07, x1 = 8e-08	0.00152 S/m
x2 = 1.2e-07, x1 = 1.7e-07	0.00113 S/m
x2 = 1.4e-07, x1 = 1.4e-07	0.00108 S/m
x2 = 1.4e-07, x1 = 2.1e-07	0.00116 S/m
x2 = 1.5e-07, x1 = 4e-08	0.00112 S/m
x2 = 1.5e-07, x1 = 6e-08	0.000443 S/m
x2 = 1.5e-07, x1 = 1e-07	0.00161 S/m
x2 = 1.6e-07, x1 = 2e-08	0.000934 S/m
x2 = 1.6e-07, x1 = 7e-08	0.000477 S/m
x2 = 1.7e-07, x1 = 1.1e-07	0.00167 S/m
x2 = 1.8e-07, x1 = 1.8e-07	0.00116 S/m
x2 = 1.8e-07, x1 = 2.7e-07	0.0012 S/m
x2 = 1.9e-07, x1 = 2e-08	0.00106 S/m
x2 = 2e-07, x1 = 9e-08	0.000571 S/m
x2 = 2e-07, x1 = 1.3e-07	0.00173 S/m
x2 = 2.2e-07, x1 = 5e-08	0.00121 S/m
x2 = 2.2e-07, x1 = 2.2e-07	0.00125 S/m
x2 = 2.3e-07, x1 = 3e-08	0.00115 S/m
x2 = 2.6e-07, x1 = 1.7e-07	0.00178 S/m
x2 = 2.6e-07, x1 = 2.6e-07	0.00135 S/m
x2 = 2.8e-07, x1 = 3e-08	0.00131 S/m
x2 = 3e-07, x1 = 7e-08	0.00125 S/m
x2 = 3e-07, x1 = 1.3e-07	0.000632 S/m
x2 = 3e-07, x1 = 2e-07	0.00186 S/m
x2 = 3e-07, x1 = 3e-07	0.00143 S/m
x2 = 3.1e-07, x1 = 3e-08	0.00138 S/m
x2 = 3.4e-07, x1 = 4e-08	0.00144 S/m
x2 = 3.4e-07, x1 = 3.4e-07	0.00147 S/m
x2 = 3.6e-07, x1 = 4e-08	0.00156 S/m
x2 = 3.7e-07, x1 = 2.4e-07	0.00196 S/m
x2 = 4e-07, x1 = 4e-08	0.00168 S/m
x2 = 4.1e-07, x1 = 1e-07	0.0013 S/m
x2 = 4.1e-07, x1 = 1.8e-07	0.000659 S/m
x2 = 4.1e-07, x1 = 2.7e-07	0.00203 S/m
x2 = 4.6e-07, x1 = 3.1e-07	0.00208 S/m
x2 = 4.7e-07, x1 = 5e-08	0.00179 S/m
x2 = 5.1e-07, x1 = 2.2e-07	0.000678 S/m
x2 = 5.1e-07, x1 = 3.4e-07	0.0022 S/m
x2 = 5.4e-07, x1 = 6e-08	0.0019 S/m
x2 = 5.6e-07, x1 = 3.7e-07	0.00228 S/m
x2 = 5.8e-07, x1 = 1.5e-07	0.00133 S/m
x2 = 6.1e-07, x1 = 7e-08	0.00201 S/m
x2 = 6.6e-07, x1 = 2.8e-07	0.000706 S/m
x2 = 6.7e-07, x1 = 7e-08	0.00214 S/m
x2 = 7.9e-07, x1 = 3.4e-07	0.000733 S/m
x2 = 8.2e-07, x1 = 2e-07	0.00138 S/m
x2 = 9e-07, x1 = 3.9e-07	0.000778 S/m
x2 = 1.05e-06, x1 = 2.6e-07	0.00143 S/m
